Laboratory results taken from the supplement of paper PMC10307832.

Assays:
Experiment in all cases: relative viability (nuclei count vs DMSO), 5 days (fraction); higher = more cells survive
ABC-1 = tested on: ABC-1
Procedure, shortened: (§1)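 Values are medians from duplicate plates. Each reflects relative viability, defined as the nuclei count of treated wells over that of vehicle wells. Lung cancer cell lines in 1536-well plates were pin-tool dosed one day after seeding with one drug alone or with a fixed anchor-drug dose plus five library-drug doses (not always all listed) in √10 steps, then fixed, stained and imaged at 4× after 5 days.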

COR-L23 = tested on: COR-L23
Procedure, shortened: as §1

EPLC-272H = tested on: EPLC-272H
Procedure, shortened: as §1

HARA = tested on: HARA
Procedure, shortened: as §1

HCC-15 = tested on: HCC-15
Procedure, shortened: as §1

HCC-78 = tested on: HCC-78
Procedure, shortened: as §1

LC-2-ad = tested on: LC-2-ad
Procedure, shortened: as §1

LU99A = tested on: LU99A
Procedure, shortened: as §1

NCI-H1355 = tested on: NCI-H1355
Procedure, shortened: as §1

NCI-H1651 = tested on: NCI-H1651
Procedure, shortened: as §1

NCI-H1915 = tested on: NCI-H1915
Procedure, shortened: as §1

NCI-H1993 = tested on: NCI-H1993
Procedure, shortened: as §1

NCI-H2023 = tested on: NCI-H2023
Procedure, shortened: as §1

NCI-H2085 = tested on: NCI-H2085
Procedure, shortened: as §1

NCI-H2126 = tested on: NCI-H2126
Procedure, shortened: as §1

NCI-H2342 = tested on: NCI-H2342
Procedure, shortened: as §1

NCI-H2347 = tested on: NCI-H2347
Procedure, shortened: as §1

NCI-H358 = tested on: NCI-H358
Procedure, shortened: as §1

NCI-H650 = tested on: NCI-H650
Procedure, shortened: as §1

NCI-H838 = tested on: NCI-H838
Procedure, shortened: as §1

PC-14 = tested on: PC-14
Procedure, shortened: as §1

SW 1573 = tested on: SW 1573
Procedure, shortened: as §1

UMC-11 = tested on: UMC-11
Procedure, shortened: as §1

In the case of Oc1nc(-c2ccc(C(F)(F)F)cc2)nc2c1CSCC2 [XAV939] + N=C(N)NC(=N)NCCc1ccccc1 [Phenformin] (partner 250 µM), the relative viability (ABC-1; first compound 0.08 µM) was 0.212, the relative viability (ABC-1; first compound 0.253 µM) was 0.272 and the relative viability (ABC-1; first compound 0.8 µM) was 0.256. For the same molecule, the relative viability (ABC-1; first compound 2.53 µM) was 0.233, the relative viability (COR-L23; first compound 0.08 µM) was 0.438 and the relative viability (COR-L23; first compound 0.253 µM) was 0.44. The relative viability (COR-L23; first compound 0.8 µM) was 0.466, the relative viability (COR-L23; first compound 2.53 µM) was 0.405 and the relative viability (EPLC-272H; first compound 0.08 µM) was 0.311. It also gave a relative viability (EPLC-272H; first compound 0.253 µM) of 0.316, a relative viability (EPLC-272H; first compound 0.8 µM) of 0.308 and a relative viability (EPLC-272H; first compound 2.53 µM) of 0.325. The relative viability (HARA; first compound 0.08 µM) was 0.425, the relative viability (HARA; first compound 0.253 µM) was 0.448 and the relative viability (HARA; first compound 0.8 µM) was 0.452. For the same molecule, the relative viability (HARA; first compound 2.53 µM) was 0.432, the relative viability (HCC-15; first compound 0.08 µM) was 0.634 and the relative viability (HCC-15; first compound 0.253 µM) was 0.457. For the same molecule, the relative viability (HCC-15; first compound 0.8 µM) was 0.481, the relative viability (HCC-15; first compound 2.53 µM) was 0.481 and the relative viability (HCC-78; first compound 0.08 µM) was 0.711. For the same molecule, the relative viability (HCC-78; first compound 0.253 µM) was 0.62, the relative viability (HCC-78; first compound 0.8 µM) was 0.66 and the relative viability (HCC-78; first compound 2.53 µM) was 0.516. For the same molecule, the relative viability (LC-2-ad; first compound 0.08 µM) was 0.638, the relative viability (LC-2-ad; first compound 0.253 µM) was 0.571 and the relative viability (LC-2-ad; first compound 0.8 µM) was 0.569. It also gave a relative viability (LC-2-ad; first compound 2.53 µM) of 0.575, a relative viability (LU99A; first compound 0.08 µM) of 0.956 and a relative viability (LU99A; first compound 0.253 µM) of 0.863. For the same molecule, the relative viability (LU99A; first compound 0.8 µM) was 0.807, the relative viability (LU99A; first compound 2.53 µM) was 0.853 and the relative viability (NCI-H1355; first compound 0.08 µM) was 0.455. For the same molecule, the relative viability (NCI-H1355; first compound 0.253 µM) was 0.428, the relative viability (NCI-H1355; first compound 0.8 µM) was 0.43 and the relative viability (NCI-H1355; first compound 2.53 µM) was 0.435. The relative viability (NCI-H1651; first compound 0.08 µM) was 0.359, the relative viability (NCI-H1651; first compound 0.253 µM) was 0.31 and the relative viability (NCI-H1651; first compound 0.8 µM) was 0.353. The relative viability (NCI-H1651; first compound 2.53 µM) was 0.302, the relative viability (NCI-H1915; first compound 0.08 µM) was 0.384 and the relative viability (NCI-H1915; first compound 0.253 µM) was 0.258. It also gave a relative viability (NCI-H1915; first compound 0.8 µM) of 0.377, a relative viability (NCI-H1915; first compound 2.53 µM) of 0.369 and a relative viability (NCI-H1993; first compound 0.08 µM) of 0.479. The relative viability (NCI-H1993; first compound 0.253 µM) was 0.526, the relative viability (NCI-H1993; first compound 0.8 µM) was 0.524 and the relative viability (NCI-H1993; first compound 2.53 µM) was 0.511. For the same molecule, the relative viability (NCI-H2023; first compound 0.08 µM) was 0.424, the relative viability (NCI-H2023; first compound 0.253 µM) was 0.391 and the relative viability (NCI-H2023; first compound 0.8 µM) was 0.365. It also gave a relative viability (NCI-H2023; first compound 2.53 µM) of 0.402, a relative viability (NCI-H2085; first compound 0.08 µM) of 0.741 and a relative viability (NCI-H2085; first compound 0.253 µM) of 0.686. It also gave a relative viability (NCI-H2085; first compound 0.8 µM) of 0.737, a relative viability (NCI-H2085; first compound 2.53 µM) of 0.653 and a relative viability (NCI-H2126; first compound 0.08 µM) of 0.577. The relative viability (NCI-H2126; first compound 0.253 µM) was 0.494, the relative viability (NCI-H2126; first compound 0.8 µM) was 0.48 and the relative viability (NCI-H2126; first compound 2.53 µM) was 0.516. It also gave a relative viability (NCI-H2342; first compound 0.08 µM) of 0.555, a relative viability (NCI-H2342; first compound 0.253 µM) of 0.518 and a relative viability (NCI-H2342; first compound 0.8 µM) of 0.552. The relative viability (NCI-H2342; first compound 2.53 µM) was 0.451, the relative viability (NCI-H2347; first compound 0.08 µM) was 0.396 and the relative viability (NCI-H2347; first compound 2.53 µM) was 0.338. For the same molecule, the relative viability (NCI-H358; first compound 0.08 µM) was 0.311, the relative viability (NCI-H358; first compound 0.253 µM) was 0.235 and the relative viability (NCI-H358; first compound 0.8 µM) was 0.311. It also gave a relative viability (NCI-H358; first compound 2.53 µM) of 0.328, a relative viability (NCI-H650; first compound 0.08 µM) of 0.474 and a relative viability (NCI-H650; first compound 0.253 µM) of 0.494. For the same molecule, the relative viability (NCI-H650; first compound 0.8 µM) was 0.439, the relative viability (NCI-H650; first compound 2.53 µM) was 0.414 and the relative viability (NCI-H838; first compound 0.08 µM) was 0.649. It also gave a relative viability (NCI-H838; first compound 0.253 µM) of 0.557, a relative viability (NCI-H838; first compound 0.8 µM) of 0.521 and a relative viability (NCI-H838; first compound 2.53 µM) of 0.395. For the same molecule, the relative viability (PC-14; first compound 0.08 µM) was 0.69, the relative viability (PC-14; first compound 0.253 µM) was 0.592 and the relative viability (PC-14; first compound 0.8 µM) was 0.629. It also gave a relative viability (PC-14; first compound 2.53 µM) of 0.555, a relative viability (SW 1573; first compound 0.08 µM) of 0.483 and a relative viability (SW 1573; first compound 0.253 µM) of 0.398. For the same molecule, the relative viability (SW 1573; first compound 0.8 µM) was 0.369, the relative viability (SW 1573; first compound 2.53 µM) was 0.37 and the relative viability (UMC-11; first compound 0.08 µM) was 0.328. For the same molecule, the relative viability (UMC-11; first compound 0.253 µM) was 0.32, the relative viability (UMC-11; first compound 0.8 µM) was 0.248 and the relative viability (UMC-11; first compound 2.53 µM) was 0.201.
